Key:
[1] = system: mRNA expressed from the genes (A) to (D) in rat liver; assay: Behavior of genes (mRNA expression level, oligo-DNA microarray) in rat liver after 28-day oral administration; format: in vivo; details: rat liver, oral once daily 28 days
In short: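 Liver mRNA levels were compared with matched vehicle groups, with a shift of at least 1.5-fold up or down deemed significant unless its direction disagreed with other carcinogens. Test substances were dosed orally by gavage daily for 28 days to 5-week-old male F344 rats, four per group.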

[2] = system: liver; details: in vivo; cited from earlier work
[3] = system: rodent; details: in vivo; cited from earlier work
[4] = (C), Unigene Rn.120914, defined direction +

CC(=O)Nc1ccc2c(c1)Cc1ccccc1-2 [TS043, 2-Acetylaminofluorene]
Behavior of gene caused by administration of chemical substance, Gene No. 4846 ([1]; (A), Unigene Rn.144554, defined direction +): + | Behavior of gene caused by administration of chemical substance, Gene No. 4218 ([1]; (A), Unigene Rn.167075, defined direction +, significant = 1.5 times or more or 1/1.5 or less of control): + | Behavior of gene caused by administration of chemical substance, Gene No. 2026 ([1]; (A), Unigene Rn.167075, defined direction −): + | Behavior of gene caused by administration of chemical substance, Gene No. 6182 ([1]; (A), Unigene Rn.5834, defined direction +): + | Behavior of gene caused by administration of chemical substance, Gene No. 5600 ([1]; (A), Unigene Rn.9836, defined direction +): + | Behavior of gene caused by administration of chemical substance, Gene No. 1494 ([1]; (B), Unigene Rn.1430, defined direction −): − | Behavior of gene caused by administration of chemical substance, Gene No. 2045 ([1]; (B), Unigene Rn.19329, defined direction +): − | Behavior of gene caused by administration of chemical substance, Gene No. 2203 ([1]; (B), Unigene Rn.21240, defined direction +): − | Behavior of gene caused by administration of chemical substance, Gene No. 533 ([1]; (C), Unigene Rn.106184, defined direction +): − | Behavior of gene caused by administration of chemical substance, Gene No. 725 ([1]; (C), Unigene Rn.108075, defined direction −): + | Behavior of gene caused by administration of chemical substance, Gene No. 1163 ([1]; (C), Unigene Rn.11766, defined direction +): + | Behavior of gene caused by administration of chemical substance, Gene No. 4973 ([1]; (C), Unigene Rn.118529, defined direction −): + | Behavior of gene caused by administration of chemical substance, Gene No. 4095 ([1]; (C), Unigene Rn.119024, defined direction −): + | Behavior of gene caused by administration of chemical substance, Gene No. 1334 [1, 4]: − | Behavior of gene caused by administration of chemical substance, Gene No. 6620 [1, 4]: − | Behavior of gene caused by administration of chemical substance, Gene No. 6303 ([1]; (C), Unigene Rn.123063, defined direction −): + | Behavior of gene caused by administration of chemical substance, Gene No. 5878 ([1]; (C), Unigene Rn.143213, defined direction −): − | Behavior of gene caused by administration of chemical substance, Gene No. 1131 ([1]; (C), Unigene Rn.144946, defined direction −): − | Behavior of gene caused by administration of chemical substance, Gene No. 1562 ([1]; (C), Unigene Rn.14744, defined direction −): + | Behavior of gene caused by administration of chemical substance, Gene No. 1741 ([1]; (C), Unigene Rn.1647, defined direction −): − | Behavior of gene caused by administration of chemical substance, Gene No. 893 ([1]; (C), Unigene Rn.164817, defined direction +): + | Behavior of gene caused by administration of chemical substance, Gene No. 6026 ([1]; (C), Unigene Rn.167685, defined direction −): − | Behavior of gene caused by administration of chemical substance, Gene No. 154 ([1]; (C), Unigene Rn.185941, defined direction −): − | Behavior of gene caused by administration of chemical substance, Gene No. 1993 ([1]; (C), Unigene Rn.18728, defined direction −): + | Behavior of gene caused by administration of chemical substance, Gene No. 813 ([1]; (C), Unigene Rn.201760, defined direction +): − | Behavior of gene caused by administration of chemical substance, Gene No. 2494 ([1]; (C), Unigene Rn.23969, defined direction +): − | Behavior of gene caused by administration of chemical substance, Gene No. 2546 ([1]; (C), Unigene Rn.24561, defined direction −): − | Behavior of gene caused by administration of chemical substance, Gene No. 3776 ([1]; (C), Unigene Rn.43232, defined direction −): − | Behavior of gene caused by administration of chemical substance, Gene No. 3929 ([1]; (C), Unigene Rn.4620, defined direction +): − | Behavior of gene caused by administration of chemical substance, Gene No. 1119 ([1]; (C), Unigene Rn.9757, defined direction +): − | Behavior of gene caused by administration of chemical substance, Gene No. 6742 ([1]; (C), Unigene Rn.9779, defined direction +): − | Behavior of gene caused by administration of chemical substance, Gene No. 5634 ([1]; (C), Unigene Rn.9862, defined direction −): − | Behavior of gene caused by administration of chemical substance, Gene No. 5726 ([1]; (D), Unigene Rn.9939, defined direction −): − | Liver carcinogenicity [2]: Cr+ | Carcinogenicity [3]: C+

Reference: patent publication US20110039721A1, “METHOD FOR PREDICTION ABOUT CARCINOGENICITY OF SUBSTANCE IN RODENT” (Chemicals Evaluation and Research Institute, priority 2007, published 2011)
